smiles,measurement,value
COc1cc2c(cc1OCCCCCC(=O)N1C[C@@H](CCl)c3c1cc(OP(=O)(O)O)c1ccccc31)N(C(=O)OCc1ccc(NC(=O)[C@H](CCCCN)NC(=O)C3(C(=O)NCCCCCN4C(=O)C=CC4=O)CCC3)cc1)C(O)[C@@H]1CCCN1C2=O (stereo partly shown),melting point,98 °C (dec.)

# Source: US10632210B2, “Peptidomimetic compounds and antibody-drug conjugates thereof” (Genentech, Inc., priority 2013, dated 2020)
